Patent publication US4027014A, “Antibiotic BN-130 substances and the production thereof” (Meiji Seika Kaisha, Ltd., priority 1974, dated 1977)

test system: BN-130 strain; test: Susceptibility of the BN-130 strain to antibiotics; format: cell-based, Pseudomonas stutzeri

Row | Compound | Susceptibility to antibiotics
1 | O=C(Cc1cccs1)N[C@@H]1C(=O)N2C(C(=O)[O-])=C(C[n+]3ccccc3)CS[C@H]12 [cephaloridine] | Resistant
2 | polymixin | Susceptible
3 | O=C(N[C@H](CO)[C@H](O)c1ccc([N+](=O)[O-])cc1)C(Cl)Cl [Chloramphenicol] | Susceptible to a medium degree
4 | CCn1cc(C(=O)O)c(=O)c2ccc(C)nc21 [nalidixic acid] | Susceptible
5 | [H]/N=C(/N)N[C@H]1[C@H](O)[C@@H](O)[C@H](O[C@@H]2O[C@@H](C)[C@](O)(C=O)[C@H]2O[C@@H]2O[C@@H](CO)[C@H](O)[C@@H](O)[C@@H]2NC)[C@@H](N/C(N)=N\[H])[C@@H]1O [streptomycin] | Susceptible to a medium degree
6 | CC1(C)S[C@@H]2[C@H](NC(=O)Cc3ccccc3)C(=O)N2[C@H]1C(=O)O [Penicillin] | Resistant
7 | CC1(C)S[C@@H]2[C@H](NC(=O)[C@H](N)c3ccccc3)C(=O)N2[C@H]1C(=O)O [aminobenzylpenicillin] | Resistant
8 | NC[C@H]1O[C@H](O[C@H]2[C@H](O)[C@@H](O[C@H]3O[C@H](CO)[C@@H](O)[C@H](N)[C@H]3O)[C@H](N)C[C@@H]2N)[C@H](O)[C@@H](O)[C@@H]1O [kanamycin] | Susceptible to a medium degree
9 | CN(C)[C@@H]1C(O)=C(C(N)=O)C(=O)[C@@]2(O)C(O)=C3C(=O)c4c(O)cccc4[C@@](C)(O)[C@H]3C[C@@H]12 [Tetracycline] | Susceptible
10 | colistin | Susceptible
